Legend:
MCF7 cells = test: MCF7 serum-free cell survival; type: cell-based; details: 10 μM, 48 h
ACAT1 C196 = target: T1, ACAT1 C196 (Homo sapiens, UniProt P24752); test: isoTOP-ABPP after in situ treatment of 231MFP cells; type: binding; details: 100 μM, 4 h in 231MFP cells in situ
T1 construct: IsoTOP-ABPP analysis of DKM 2-90 treatment in 231MFP cells in situ; endogenous in cells; host or cells: 231MFP cells
T1 sequence (P24752 34-427): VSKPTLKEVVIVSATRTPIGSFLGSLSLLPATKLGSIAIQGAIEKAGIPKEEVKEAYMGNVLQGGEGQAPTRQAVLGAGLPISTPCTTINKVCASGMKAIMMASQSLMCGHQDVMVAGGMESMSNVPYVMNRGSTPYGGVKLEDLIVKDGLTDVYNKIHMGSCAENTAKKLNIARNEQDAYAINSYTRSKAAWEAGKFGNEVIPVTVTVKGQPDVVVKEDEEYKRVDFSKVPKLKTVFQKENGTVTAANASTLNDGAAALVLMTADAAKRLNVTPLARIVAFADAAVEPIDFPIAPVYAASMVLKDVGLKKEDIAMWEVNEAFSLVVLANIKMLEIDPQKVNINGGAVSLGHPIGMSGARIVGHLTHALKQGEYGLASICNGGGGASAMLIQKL
Protocol: (§1) IsoTOP-ABPP studies were performed using the methods described in “Nature 534(7608), 570-574 (2016)” by Backus K. M., et al. and “Nature 468(7325), 790-795 (2010)” by Weerapana E., et al. […] Then, IAyne (iodoacetamide-alkyne) labeling was performed for 1 hour at room temperature. CuAAC was used by sequential addition of tris(2-carboxyethyl)phosphine (1 mM), tris[(1-benzyl-1H-1,2,3-triazol-4-yl)methyl]amine (34 μM), copper (II) sulfate (1 mM), and biotin-linker-azide where the linker was functionalized with a TEV protease recognition sequence along with an isotopically light or heavy valine for treatment of control or treated proteome, respectively. After click reactions, proteomes were precipitated by centrifugation at 6500×g, washed in ice-cold methanol, combined in a 1:1 control/treated ratio, washed again, then denatured and re-solubilized by heating in 1.2% SDS/PBS to 80° C. for 5 minutes. Insoluble components were precipitated by centrifugation at 6500×g and soluble proteome was diluted in 0.2% SDS/PBS (5 ml). Labeled proteins were bound to avidin-agarose beads (170 μl re-suspended beads/sample) while rotating overnight at 4° C. Bead-linked proteins were enriched by washing three times each in PBS and water, then re-suspended in urea/PBS (6 M), reduced in TCEP (1 mM), alkylated with iodoacetamide (18 mM), then washed and re-suspended in urea/PBS (2 M), and finally trypsinized overnight with 0.5 μg/μl sequencing grade trypsin. Tryptic peptides were eluted off. Beads were washed in PBS (3 times) and water (3 times), washed in TEV buffer solution (water, TEV buffer, 100 μM dithiothreitol), and re-suspended in buffer with Ac-TEV protease and then incubated overnight. Peptides were diluted in water, acidified with formic acid (1.2 M), and prepared for analysis.
(§2) Peptides from all proteomic experiments were pressure-loaded onto an Agilent 600 series RP-HPLC system equipped with a capillary tubing (250 mm) packed with Aqua C18 reverse-phase resin (4 cm). The system was previously equilibrated with a gradient (0% B to 100% B over 10 minutes, 100% B for 5 minutes, then 0% B for 5 minutes; buffer A: 95:5 water:acetonitrile, 0.1% formic acid; buffer B: 80:20 acetonitrile:water, 0.1% formic acid). The samples were then attached using a MicroTee PEEK 360 μm fitting to a laser pulled column (13 cm) packed with Aqua C18 reverse-phase resin (10 cm) and strong-cation exchange resin (3 cm) for isoTOP-ABPP studies. Samples were analyzed using an Q Exactive Plus mass spectrometer using a 5-step Multidimensional Protein Identification Technology (MudPIT) program. The system was run using a gradient (5% B to 55% B; buffer A: 95:5 water:acetonitrile, 0.1% formic acid; buffer B: 80:20 acetonitrile:water, 0.1% formic acid), along with a salt bump feeding aqueous ammonium acetate (500 mM) at an increment of 0%, 25%, 50%, 80%, to 100%. Data was collected in data-dependent acquisition mode with dynamic exclusion enabled (60 sec). One full MS scan (400-1800 m/z) (MS1 scan) was conducted, followed by MS2 scan (ITMS) (15 times) of the most abundant ions. Heated capillary temperature was set to 200° C. and the nanospray voltage was set to 2.75 kV.
(§3) Data was extracted in the form of MS1 and MS2 files using Raw Extractor 1.9.9.2 and searched against the Uniprot […] database using ProLuCID search methodology in IP2 v.3, described in “J Proteomics 129:16-24 (2015)” by Xu T, et al. Cysteine residues were searched with a static modification for carboxyaminomethylation (+m/z 57.02146), up to two differential modifications for methionine oxidation, and either the light or heavy TEV tags (+m/z 464.28596 or +m/z 470.29977, respectively). Peptides were required to have at least one tryptic end and to contain the TEV modification. ProLUCID data was filtered through DTASelect to achieve a peptide false-positive rate below 1%. […]

SCP2 C307 = target: T2, SCP2 C307 (Homo sapiens, UniProt P22307); test: as above; type: binding; details: 100 μM, 4 h in 231MFP cells in situ
T2 construct: IsoTOP-ABPP analysis of DKM 2-90 treatment in 231MFP cells in situ; endogenous in cells; host or cells: 231MFP cells
T2 sequence (P22307 1-547): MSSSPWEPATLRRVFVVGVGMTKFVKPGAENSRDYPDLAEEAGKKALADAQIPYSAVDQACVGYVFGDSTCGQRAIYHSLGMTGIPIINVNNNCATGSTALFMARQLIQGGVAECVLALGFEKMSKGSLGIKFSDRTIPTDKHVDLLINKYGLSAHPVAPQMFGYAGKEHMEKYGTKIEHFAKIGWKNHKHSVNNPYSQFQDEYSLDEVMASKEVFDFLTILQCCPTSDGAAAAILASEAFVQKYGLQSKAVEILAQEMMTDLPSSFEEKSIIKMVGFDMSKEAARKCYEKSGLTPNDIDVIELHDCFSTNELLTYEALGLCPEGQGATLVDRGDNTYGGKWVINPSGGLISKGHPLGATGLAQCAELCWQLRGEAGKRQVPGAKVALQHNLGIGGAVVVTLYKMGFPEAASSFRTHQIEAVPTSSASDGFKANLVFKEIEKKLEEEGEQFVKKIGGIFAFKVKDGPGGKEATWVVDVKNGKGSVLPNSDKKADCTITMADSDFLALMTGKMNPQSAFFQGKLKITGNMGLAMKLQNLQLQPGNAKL
Protocol: as §1, §2, §3

| Compound | serum-free cell survival (MCF7 cells) | isotopically light to heavy ratio, ACAT1 C196 (ACAT1 C196) | isotopically light to heavy ratio, SCP2 C307 (SCP2 C307) |
| --- | --- | --- | --- |
| CC1=C(CO)C(=O)O[C@@H]([C@@H](C)[C@H]2CC[C@H]3[C@@H]4C[C@H]5O[C@]56[C@@H](O)C=CC(=O)[C@]6(C)[C@H]4CC[C@]23C)C1 [withaferin A, reference compound] | impairs |  |  |
| O=C(CCl)Nc1ccc2c(c1)OCCO2 [DKM 2-90, 2-Chloro-N-(2,3-dihydrobenzo[β][1,4]dioxin-6-yl)acetamide] |  | > 5 | > 5 |

From patent US20200054651A1, “COMPOSITIONS AND METHODS FOR MODULATING PPP2R1A” (The Regents of the University of California, priority 2017, published 2020)
